According to US20190330275A1 (priority 2016, published 2019):
pIC50: −log10 of the molar value. Several values for one entry are separate records, joined by “and”; a condition that tells them apart may be missing. Equal entries are not always repeated. Entries after “also recorded” stand apart in the source; their conditions may differ. Peptide text beside a SMILES is read from it.

Assays:
[1] = target: rat α3β4 nAChR (Rattus norvegicus, UniProt P04757+P12392); assay: cell-based
[2] = target: rat α6/α3β4 nAChR (Rattus norvegicus, UniProt P04757+P12392+P43143); assay: cell-based
Sequence of rat α6/α3β4 nAChR (P04757 whole entry, looked up): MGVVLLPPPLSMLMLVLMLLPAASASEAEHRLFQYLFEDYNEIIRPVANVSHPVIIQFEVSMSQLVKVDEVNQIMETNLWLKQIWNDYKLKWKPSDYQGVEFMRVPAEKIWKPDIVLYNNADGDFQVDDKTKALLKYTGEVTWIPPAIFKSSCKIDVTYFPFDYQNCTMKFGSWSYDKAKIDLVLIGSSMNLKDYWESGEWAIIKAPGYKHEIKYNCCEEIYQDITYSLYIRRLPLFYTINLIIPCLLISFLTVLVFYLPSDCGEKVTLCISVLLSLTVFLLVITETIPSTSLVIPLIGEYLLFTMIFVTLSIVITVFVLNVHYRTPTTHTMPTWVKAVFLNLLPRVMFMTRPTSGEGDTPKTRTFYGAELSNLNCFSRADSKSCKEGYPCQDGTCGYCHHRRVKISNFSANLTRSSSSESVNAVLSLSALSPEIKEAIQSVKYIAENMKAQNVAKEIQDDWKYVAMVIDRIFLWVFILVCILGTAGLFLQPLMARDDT
Sequence of rat α6/α3β4 nAChR (P12392 whole entry, looked up): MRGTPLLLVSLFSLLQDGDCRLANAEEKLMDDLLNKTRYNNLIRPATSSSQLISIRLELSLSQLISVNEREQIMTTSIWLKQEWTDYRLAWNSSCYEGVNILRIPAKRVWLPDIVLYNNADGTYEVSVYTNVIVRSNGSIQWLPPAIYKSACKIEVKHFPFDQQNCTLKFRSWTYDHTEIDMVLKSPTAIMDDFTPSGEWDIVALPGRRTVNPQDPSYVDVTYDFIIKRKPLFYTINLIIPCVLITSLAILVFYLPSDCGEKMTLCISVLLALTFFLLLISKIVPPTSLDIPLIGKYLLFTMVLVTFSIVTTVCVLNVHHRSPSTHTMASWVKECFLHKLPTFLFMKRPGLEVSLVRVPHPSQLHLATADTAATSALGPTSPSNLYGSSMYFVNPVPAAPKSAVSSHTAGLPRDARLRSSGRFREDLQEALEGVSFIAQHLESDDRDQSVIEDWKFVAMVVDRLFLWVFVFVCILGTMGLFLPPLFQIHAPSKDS
Sequence of rat α6/α3β4 nAChR (P43143 whole entry, looked up): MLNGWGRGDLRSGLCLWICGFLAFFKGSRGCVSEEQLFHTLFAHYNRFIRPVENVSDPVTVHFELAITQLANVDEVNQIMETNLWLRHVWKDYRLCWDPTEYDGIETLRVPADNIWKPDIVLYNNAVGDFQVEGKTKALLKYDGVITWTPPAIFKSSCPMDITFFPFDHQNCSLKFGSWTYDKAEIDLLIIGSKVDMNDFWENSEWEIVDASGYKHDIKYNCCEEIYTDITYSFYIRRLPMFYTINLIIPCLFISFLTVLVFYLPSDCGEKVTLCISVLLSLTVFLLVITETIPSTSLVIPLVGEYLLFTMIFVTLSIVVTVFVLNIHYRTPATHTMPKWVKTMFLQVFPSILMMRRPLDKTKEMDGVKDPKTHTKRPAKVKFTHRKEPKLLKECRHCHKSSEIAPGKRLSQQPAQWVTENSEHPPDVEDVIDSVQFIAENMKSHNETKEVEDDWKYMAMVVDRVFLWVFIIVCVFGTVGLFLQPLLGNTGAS

[3] = α6/α3β4 IC50 (half-blocking dose)

Sequence of rat α3β4 nAChR (P04757 26-499 limits assumed): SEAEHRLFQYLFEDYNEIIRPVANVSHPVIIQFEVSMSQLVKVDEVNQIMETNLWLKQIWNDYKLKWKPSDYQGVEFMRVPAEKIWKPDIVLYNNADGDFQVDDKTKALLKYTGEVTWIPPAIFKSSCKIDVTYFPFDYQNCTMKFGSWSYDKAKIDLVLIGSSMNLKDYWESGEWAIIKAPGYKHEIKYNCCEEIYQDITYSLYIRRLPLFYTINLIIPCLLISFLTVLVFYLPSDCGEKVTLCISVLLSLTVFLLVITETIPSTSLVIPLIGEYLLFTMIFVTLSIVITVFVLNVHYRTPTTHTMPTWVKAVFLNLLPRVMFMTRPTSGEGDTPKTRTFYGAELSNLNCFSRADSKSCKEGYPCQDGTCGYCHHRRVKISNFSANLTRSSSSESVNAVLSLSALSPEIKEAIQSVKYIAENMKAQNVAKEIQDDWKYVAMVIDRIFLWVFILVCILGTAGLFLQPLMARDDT
Sequence of rat α3β4 nAChR (P12392 21-495 limits assumed): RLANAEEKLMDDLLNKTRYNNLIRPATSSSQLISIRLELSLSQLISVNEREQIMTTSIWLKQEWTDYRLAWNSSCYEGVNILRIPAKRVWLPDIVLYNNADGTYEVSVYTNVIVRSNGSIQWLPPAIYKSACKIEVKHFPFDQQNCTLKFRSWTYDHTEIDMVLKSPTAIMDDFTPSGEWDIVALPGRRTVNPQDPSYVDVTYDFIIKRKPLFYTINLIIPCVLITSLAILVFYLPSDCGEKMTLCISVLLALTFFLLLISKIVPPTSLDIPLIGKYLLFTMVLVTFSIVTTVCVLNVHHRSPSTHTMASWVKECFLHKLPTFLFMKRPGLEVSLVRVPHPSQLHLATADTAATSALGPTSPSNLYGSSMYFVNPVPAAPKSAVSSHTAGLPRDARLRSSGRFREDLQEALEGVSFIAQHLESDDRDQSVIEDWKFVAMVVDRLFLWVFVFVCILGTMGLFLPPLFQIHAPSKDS

Compound	α3β4 IC50 ratio [1]	pIC50 ([1]; α3β4 IC50 (half-blocking dose))	IC50 ratio of α6/α3β4 vs. α3β4 (Discrimination) [2]	α6/α3β4 IC50 ratio [2]	pIC50 [2, 3]	also measured
CC[C@H](C)[C@@H]1NC(=O)[C@@H]2CCCN2C(=O)[C@H](CO)NC(=O)[C@H](CCSC)NC(=O)[C@H](C)NC(=O)[C@H](Cc2ccc(O)cc2)NC(=O)[C@@H]2CSSC[C@H](NC(=O)CN)C(=O)N[C@@H](CSSC[C@@H](C(N)=O)NC1=O)C(=O)N[C@@H](CO)C(=O)N[C@@H](Cc1c[nH]cn1)C(=O)N1CCC[C@H]1C(=O)N[C@@H](C(C)C)C(=O)N2 [TxID[S9Y]] (HELM PEPTIDE1{G.C.C.S.H.P.V.C.Y.A.M.S.P.I.C.[am]}$PEPTIDE1,PEPTIDE1,2:R3-8:R3|PEPTIDE1,PEPTIDE1,3:R3-15:R3$$$V2.0)						binding (blocking) activity to α3β4 nAChR compared with wild type TxID [1]: not significantly different from the activity of the wild type TxID; blocking of rat α3β4 nAChRs current [1]: strong blocking activities; current after 2 min of elution [1]: ~0 nA; elution after blocking the α3β4 nAChR current [1]: very slow; binding (blocking) activity to α6/α3β4 nAChR compared with wild type TxID [2]: not significantly different from the activity of the wild type TxID
CC[C@H](C)[C@@H]1NC(=O)[C@H](CC(=O)O)NC(=O)[C@@H]2CCCN2C(=O)[C@H](CO)NC(=O)[C@H](CCSC)NC(=O)[C@H](C)NC(=O)[C@H](CO)NC(=O)[C@@H]2CSSC[C@H](NC(=O)CN)C(=O)N[C@@H](CSSC[C@@H](C(N)=O)NC1=O)C(=O)N[C@@H](CO)C(=O)N[C@@H](Cc1c[nH]cn1)C(=O)N1CCC[C@H]1C(=O)N[C@@H](C(C)C)C(=O)N2 [TxID[14D]] (HELM PEPTIDE1{G.C.C.S.H.P.V.C.S.A.M.S.P.D.I.C.[am]}$PEPTIDE1,PEPTIDE1,2:R3-8:R3|PEPTIDE1,PEPTIDE1,3:R3-16:R3$$$V2.0)	14.1	7.30	44.7	66.6	5.65	pIC50 ([2]; α6/α3β4 IC50): 5.00 to 6.00
CSCC[C@@H]1NC(=O)[C@H](C)NC(=O)[C@H](CO)NC(=O)[C@@H]2CSSC[C@H](NC(=O)CN)C(=O)N[C@@H](CSSC[C@@H](C(N)=O)NC(=O)[C@H](C)NC(=O)[C@@H]3CCCN3C(=O)[C@H](CO)NC1=O)C(=O)N[C@@H](CO)C(=O)N[C@@H](Cc1c[nH]cn1)C(=O)N1CCC[C@H]1C(=O)N[C@@H](C(C)C)C(=O)N2 [TxID[I14A]] (HELM PEPTIDE1{G.C.C.S.H.P.V.C.S.A.M.S.P.A.C.[am]}$PEPTIDE1,PEPTIDE1,2:R3-8:R3|PEPTIDE1,PEPTIDE1,3:R3-15:R3$$$V2.0)	4.4	7.79	2.8	1.3	7.34	
CC[C@H](C)[C@@H]1NC(=O)[C@H](C)NC(=O)[C@H](CO)NC(=O)[C@H](CCSC)NC(=O)[C@H](C)NC(=O)[C@H](CO)NC(=O)[C@@H]2CSSC[C@H](NC(=O)CN)C(=O)N[C@@H](CSSC[C@@H](C(N)=O)NC1=O)C(=O)N[C@@H](CO)C(=O)N[C@@H](Cc1c[nH]cn1)C(=O)N1CCC[C@H]1C(=O)N[C@@H](C(C)C)C(=O)N2 [TxID[P13A]] (HELM PEPTIDE1{G.C.C.S.H.P.V.C.S.A.M.S.A.I.C.[am]}$PEPTIDE1,PEPTIDE1,2:R3-8:R3|PEPTIDE1,PEPTIDE1,3:R3-15:R3$$$V2.0)		< 5.00			< 5.00	
CSCC[C@@H]1NC(=O)[C@H](C)NC(=O)[C@H](CO)NC(=O)[C@@H]2CSSC[C@H](NC(=O)CN)C(=O)N[C@@H](CSSC[C@@H](C(N)=O)NC(=O)[C@H](Cc3ccc(O)cc3)NC(=O)[C@@H]3CCCN3C(=O)[C@H](CO)NC1=O)C(=O)N[C@@H](CO)C(=O)N[C@@H](Cc1c[nH]cn1)C(=O)N1CCC[C@H]1C(=O)N[C@@H](C(C)C)C(=O)N2 [TxID[I14Y]] (HELM PEPTIDE1{G.C.C.S.H.P.V.C.S.A.M.S.P.Y.C.[am]}$PEPTIDE1,PEPTIDE1,2:R3-8:R3|PEPTIDE1,PEPTIDE1,3:R3-15:R3$$$V2.0)	2.7	8.00	3.9	1.1	7.41	
CC[C@H](C)[C@@H]1NC(=O)[C@@H]2CCCN2C(=O)[C@H](CO)NC(=O)[C@H](CCSC)NC(=O)[C@H](C)NC(=O)[C@H](CO)NC(=O)[C@@H]2CSSC[C@H](NC(=O)CN)C(=O)N[C@@H](CSSC[C@@H](C(N)=O)NC1=O)C(=O)N[C@@H](CO)C(=O)N[C@@H](Cc1c[nH]cn1)C(=O)N1CCC[C@H]1C(=O)N[C@@H](C(C)C)C(=O)N2 [TxID, reference compound]						blocking of rat α3β4 nAChRs current [1]: strong blocking activities; current blocked [1]: 97% and 67%; elution time for current to return to the level of control current [1]: ≤ 2 min; current blocked [2]: 85% and 46%; discrimination degree between α3β4 and α6β4* nAChRs [2]: 9.3 times
CC[C@H](C)[C@@H]1NC(=O)[C@@H]2CCCN2C(=O)[C@H](CO)NC(=O)[C@H](CCSC)NC(=O)[C@H](C)NC(=O)[C@H](CCC(=O)O)NC(=O)[C@@H]2CSSC[C@H](NC(=O)CN)C(=O)N[C@@H](CSSC[C@@H](C(N)=O)NC1=O)C(=O)N[C@@H](CO)C(=O)N[C@@H](Cc1c[nH]cn1)C(=O)N1CCC[C@H]1C(=O)N[C@@H](C(C)C)C(=O)N2 [TxID[S9E]] (HELM PEPTIDE1{G.C.C.S.H.P.V.C.E.A.M.S.P.I.C.[am]}$PEPTIDE1,PEPTIDE1,2:R3-8:R3|PEPTIDE1,PEPTIDE1,3:R3-15:R3$$$V2.0)						binding (blocking) activity to α3β4 nAChR compared with wild type TxID [1]: weak; binding (blocking) activity to α6/α3β4 nAChR compared with wild type TxID [2]: completely lost; also recorded: completely loses the binding activity; blocking effect on the current of rat α6/α3β4 nAChRs [2]: no blocking activity; also recorded: no blocking effect
CSCC[C@@H]1NC(=O)[C@H](C)NC(=O)[C@H](CO)NC(=O)[C@@H]2CSSC[C@H](NC(=O)CN)C(=O)N[C@@H](CSSC[C@@H](C(N)=O)NC(=O)[C@H](CCCNC(=N)N)NC(=O)[C@@H]3CCCN3C(=O)[C@H](CO)NC1=O)C(=O)N[C@@H](CO)C(=O)N[C@@H](Cc1c[nH]cn1)C(=O)N1CCC[C@H]1C(=O)N[C@@H](C(C)C)C(=O)N2 [TxID[I14R]] (HELM PEPTIDE1{G.C.C.S.H.P.V.C.S.A.M.S.P.R.C.[am]}$PEPTIDE1,PEPTIDE1,2:R3-8:R3|PEPTIDE1,PEPTIDE1,3:R3-15:R3$$$V2.0)	2.5	8.04	7.3	2.0	7.17	
CC[C@H](C)[C@@H]1NC(=O)[C@@H]2CCCN2C(=O)[C@H](CO)NC(=O)[C@H](CCSC)NC(=O)[C@H](C)NC(=O)[C@H](CO)NC(=O)[C@@H]2CSSC[C@H](NC(=O)CN)C(=O)N[C@@H](CSSC[C@@H](C(N)=O)NC1=O)C(=O)N[C@@H](CO)C(=O)N[C@@H](C)C(=O)N1CCC[C@H]1C(=O)N[C@@H](C(C)C)C(=O)N2 [TxID[H5A]] (HELM PEPTIDE1{G.C.C.S.A.P.V.C.S.A.M.S.P.I.C.[am]}$PEPTIDE1,PEPTIDE1,2:R3-8:R3|PEPTIDE1,PEPTIDE1,3:R3-15:R3$$$V2.0)		< 5.00			< 5.00	
CC[C@H](C)[C@@H]1NC(=O)[C@@H]2CCCN2C(=O)[C@H](CO)NC(=O)[C@H](CCSC)NC(=O)[C@H](C)NC(=O)[C@H](CO)NC(=O)[C@@H]2CSSC[C@H](NC(=O)CN)C(=O)N[C@@H](CSSC[C@@H](C(N)=O)NC1=O)C(=O)N[C@@H](CO)C(=O)N[C@@H](Cc1c[nH]cn1)C(=O)N[C@@H](C)C(=O)N[C@@H](C(C)C)C(=O)N2 [TxID[P6A]] (HELM PEPTIDE1{G.C.C.S.H.A.V.C.S.A.M.S.P.I.C.[am]}$PEPTIDE1,PEPTIDE1,2:R3-8:R3|PEPTIDE1,PEPTIDE1,3:R3-15:R3$$$V2.0)		< 5.00			< 5.00	
CC[C@H](C)[C@@H]1NC(=O)[C@@H]2CCCN2C(=O)[C@H](C)NC(=O)[C@H](CCSC)NC(=O)[C@H](C)NC(=O)[C@H](CO)NC(=O)[C@@H]2CSSC[C@H](NC(=O)CN)C(=O)N[C@@H](CSSC[C@@H](C(N)=O)NC1=O)C(=O)N[C@@H](CO)C(=O)N[C@@H](Cc1c[nH]cn1)C(=O)N1CCC[C@H]1C(=O)N[C@@H](C(C)C)C(=O)N2 [TxID[S12A]] (HELM PEPTIDE1{G.C.C.S.H.P.V.C.S.A.M.A.P.I.C.[am]}$PEPTIDE1,PEPTIDE1,2:R3-8:R3|PEPTIDE1,PEPTIDE1,3:R3-15:R3$$$V2.0)	4.8		2.3	1.2		
CC[C@H](C)[C@@H]1NC(=O)[C@@H]2CCCN2C(=O)[C@H](CO)NC(=O)[C@H](CCSC)NC(=O)[C@H](C)NC(=O)[C@H](CCCNC(=N)N)NC(=O)[C@H](CO)NC(=O)[C@@H]2CSSC[C@H](NC(=O)CN)C(=O)N[C@@H](CSSC[C@@H](C(N)=O)NC1=O)C(=O)N[C@@H](CO)C(=O)N[C@@H](Cc1c[nH]cn1)C(=O)N1CCC[C@H]1C(=O)N[C@@H](C(C)C)C(=O)N2 [TxID[10R]] (HELM PEPTIDE1{G.C.C.S.H.P.V.C.S.R.A.M.S.P.I.C.[am]}$PEPTIDE1,PEPTIDE1,2:R3-8:R3|PEPTIDE1,PEPTIDE1,3:R3-16:R3$$$V2.0)		< 5.00			< 5.00	
CC[C@H](C)[C@@H]1NC(=O)[C@@H]2CCCN2C(=O)[C@H](CO)NC(=O)[C@H](CCSC)NC(=O)[C@H](C)NC(=O)[C@H](Cc2cnc[nH]2)NC(=O)[C@@H]2CSSC[C@H](NC(=O)CN)C(=O)N[C@@H](CSSC[C@@H](C(N)=O)NC1=O)C(=O)N[C@@H](CO)C(=O)N[C@@H](Cc1cnc[nH]1)C(=O)N1CCC[C@H]1C(=O)N[C@@H](C(C)C)C(=O)N2 [TxID[S9H]] (HELM PEPTIDE1{G.C.C.S.H.P.V.C.H.A.M.S.P.I.C.[am]}$PEPTIDE1,PEPTIDE1,2:R3-8:R3|PEPTIDE1,PEPTIDE1,3:R3-15:R3$$$V2.0)		8.58			7.83	pIC50 ([1]; α3β4 IC50): 8.71; pIC50 ([2]; α6/α3β4 IC50): 7.73
CC[C@H](C)[C@@H]1NC(=O)[C@@H]2CCCN2C(=O)[C@H](CO)NC(=O)[C@H](CCSC)NC(=O)[C@H](C)NC(=O)[C@H](CO)NC(=O)[C@@H]2CSSC[C@H](NC(=O)CN)C(=O)N[C@@H](CSSC[C@@H](C(N)=O)NC1=O)C(=O)N[C@@H](CO)C(=O)N[C@@H](Cc1c[nH]cn1)C(=O)N1CCC[C@H]1C(=O)N[C@@H](C)C(=O)N2 [TxID[V7A]] (HELM PEPTIDE1{G.C.C.S.H.P.A.C.S.A.M.S.P.I.C.[am]}$PEPTIDE1,PEPTIDE1,2:R3-8:R3|PEPTIDE1,PEPTIDE1,3:R3-15:R3$$$V2.0)		< 5.00			< 5.00	
